According to the OligoGym collection:
HELM strings list units from the 5' end as sugar, base in round brackets, then linkage (d deoxyribose, r ribose, m 2'-O-methyl, p phosphodiester). Strings are as the collection lists them; they lack the last nucleoside at the 3' end of the tested compound. [moe] = 2'-O-(2-methoxyethyl) (MOE); [sp] = phosphorothioate linkage; [m5C] = 5-methylcytosine

Target: PRNP
Assay: mouse, dose not given
Conditions: ASO

Substance | 3 h FOB score [score 0-7]
RNA1{[moe](G)[sp].[moe](G)p.[moe]([m5C])p.[moe](T)p.[moe](T)[sp].d(A)[sp].d([m5C])[sp].d(T)[sp].d([m5C])[sp].d(G)[sp].d(G)[sp].d([m5C])[sp].d(T)[sp].d(T)[sp].d(G)[sp].[moe](T)p.[moe](T)p.[moe]([m5C])[sp].[moe]([m5C])}$$$$ (last 3' nucleoside missing) | 3.75
RNA1{[moe](G)[sp].[moe](T)[sp].[moe]([m5C])p.[moe](A)p.[moe](G)p.[moe](T)p.[moe](T)p.d(T)[sp].d(T)[sp].d(T)[sp].d([m5C])[sp].d([m5C])[sp].d([m5C])[sp].d([m5C])[sp].d(A)[sp].d([m5C])[sp].d(A)[sp].[moe](T)p.[moe](A)}$$$$ (last 3' nucleoside missing) | 0
RNA1{[moe](G)[sp].[moe](T)p.[moe](A)p.[moe](T)p.[moe](A)[sp].d(A)[sp].d(T)[sp].d(T)[sp].d(T)[sp].d(T)[sp].d(T)[sp].d(T)[sp].d(T)[sp].d(A)[sp].d([m5C])[sp].[moe]([m5C])p.[moe](T)p.[moe](G)[sp].[moe](G)}$$$$ (last 3' nucleoside missing) | 0
RNA1{[moe](G)[sp].[moe](T)p.[moe](A)p.[moe](T)p.[moe](G)[sp].d(T)[sp].d([m5C])[sp].d(A)[sp].d(A)[sp].d(A)[sp].d(A)[sp].d(T)[sp].d([m5C])[sp].d(A)[sp].d(T)[sp].[moe](T)p.[moe]([m5C])p.[moe](T)[sp].[moe](G)}$$$$ (last 3' nucleoside missing) | 6
RNA1{[moe](G)[sp].[moe](T)p.[moe](A)p.[moe](T)p.[moe]([m5C])[sp].d(A)[sp].d(T)[sp].d(G)[sp].d(T)[sp].d(G)[sp].d(G)[sp].d([m5C])[sp].d([m5C])[sp].d(T)[sp].d([m5C])[sp].[moe]([m5C])p.[moe](T)p.[moe](A)[sp].[moe](A)}$$$$ (last 3' nucleoside missing) | 5.5
RNA1{[moe](G)[sp].[moe](T)p.[moe](G)p.[moe](A)p.[moe](A)[sp].d(T)[sp].d(A)[sp].d(T)[sp].d(G)[sp].d(T)[sp].d([m5C])[sp].d([m5C])[sp].d(T)[sp].d([m5C])[sp].d(T)[sp].[moe](A)p.[moe](G)p.[moe]([m5C])[sp].[moe]([m5C])}$$$$ (last 3' nucleoside missing) | 2.5
RNA1{[moe](G)[sp].[moe](T)p.[moe](G)p.[moe](A)p.[moe]([m5C])[sp].d(A)[sp].d(A)[sp].d(T)[sp].d(A)[sp].d(T)[sp].d(T)[sp].d(T)[sp].d(A)[sp].d([m5C])[sp].d(T)[sp].[moe]([m5C])p.[moe](T)p.[moe](T)[sp].[moe](G)}$$$$ (last 3' nucleoside missing) | 1
RNA1{[moe](G)[sp].[moe](T)p.[moe](G)p.[moe](G)p.[moe](A)[sp].d(A)[sp].d(G)[sp].d(A)[sp].d([m5C])[sp].d(T)[sp].d(T)[sp].d(G)[sp].d(T)[sp].d(G)[sp].d(T)[sp].[moe](T)p.[moe](A)p.[moe](G)[sp].[moe](A)}$$$$ (last 3' nucleoside missing) | 5.25
RNA1{[moe](G)[sp].[moe](T)p.[moe](G)p.[moe](T)p.[moe](T)[sp].d(G)[sp].d(T)[sp].d(G)[sp].d(A)[sp].d([m5C])[sp].d(A)[sp].d(A)[sp].d(T)[sp].d(A)[sp].d(T)[sp].[moe](T)p.[moe](T)p.[moe](A)[sp].[moe]([m5C])}$$$$ (last 3' nucleoside missing) | 1
RNA1{[moe](G)[sp].[moe](T)p.[moe](G)p.[moe](T)p.[moe](T)[sp].d([m5C])[sp].d([m5C])[sp].d(A)[sp].d(T)[sp].d([m5C])[sp].d([m5C])[sp].d(T)[sp].d([m5C])[sp].d([m5C])[sp].d(A)[sp].[moe](G)p.[moe](G)p.[moe]([m5C])[sp].[moe](T)}$$$$ (last 3' nucleoside missing) | 1
RNA1{[moe](G)[sp].[moe](T)p.[moe](G)p.[moe](T)p.[moe]([m5C])[sp].d(A)[sp].d(T)[sp].d(A)[sp].d(A)[sp].d(T)[sp].d(T)[sp].d(T)[sp].d(T)[sp].d([m5C])[sp].d(T)[sp].[moe](T)p.[moe](A)p.[moe](G)[sp].[moe]([m5C])}$$$$ (last 3' nucleoside missing) | 0.5
RNA1{[moe](G)[sp].[moe](T)p.[moe](G)p.[moe](T)p.[moe]([m5C])p.[moe](A)p.d(T)[sp].d(A)[sp].d(A)[sp].d(T)[sp].d(T)[sp].d(T)[sp].d(T)[sp].d([m5C])[sp].d(T)[sp].d(T)[sp].[moe](A)p.[moe](G)[sp].[moe]([m5C])}$$$$ (last 3' nucleoside missing) | 0
RNA1{[moe](G)[sp].[moe](T)p.[moe](G)p.[moe](T)p.[moe]([m5C])p.d(A)[sp].d(T)[sp].d(A)[sp].d(A)[sp].d(T)[sp].d(T)[sp].d(T)[sp].d(T)[sp].d([m5C])[sp].[moe](T)[sp].[moe](T)p.[moe](A)p.[moe](G)}$$$$ (last 3' nucleoside missing) | 0
RNA1{[moe](G)[sp].[moe](T)p.[moe](G)p.[moe](T)p.d([m5C])[sp].d(A)[sp].d(T)[sp].d(A)[sp].d(A)[sp].d(T)[sp].d(T)[sp].d(T)[sp].d(T)[sp].d([m5C])[sp].[moe](T)p.[moe](T)p.[moe](A)p.[moe](G)[sp].[moe]([m5C])}$$$$ (last 3' nucleoside missing) | 0
RNA1{[moe](G)[sp].[moe](T)p.[moe](G)p.[moe]([m5C])p.[moe](T)[sp].d(T)[sp].d(A)[sp].d(T)[sp].d(T)[sp].d(A)[sp].d(T)[sp].d(T)[sp].d([m5C])[sp].d(A)[sp].d(T)[sp].[moe](G)p.[moe](T)p.[moe](T)[sp].[moe]([m5C])}$$$$ (last 3' nucleoside missing) | 0.5
RNA1{[moe](G)[sp].[moe](T)p.[moe](T)p.[moe](A)p.[moe](G)[sp].d([m5C])[sp].d(T)[sp].d(T)[sp].d(T)[sp].d(T)[sp].d(T)[sp].d(T)[sp].d(T)[sp].d([m5C])[sp].d(A)[sp].[moe]([m5C])p.[moe](T)p.[moe](G)[sp].[moe](T)}$$$$ (last 3' nucleoside missing) | 0.5
RNA1{[moe](G)[sp].[moe](T)p.[moe](T)p.[moe](G)p.[moe](A)[sp].d(T)[sp].d(T)[sp].d(T)[sp].d(T)[sp].d(T)[sp].d([m5C])[sp].d([m5C])[sp].d(A)[sp].d(G)[sp].d(A)[sp].[moe](A)p.[moe](G)p.[moe](T)[sp].[moe](T)}$$$$ (last 3' nucleoside missing) | 3.25
RNA1{[moe](G)[sp].[moe](T)p.[moe](T)p.[moe](G)p.[moe](T)[sp].d(G)[sp].d(A)[sp].d([m5C])[sp].d(A)[sp].d(A)[sp].d(T)[sp].d(A)[sp].d(T)[sp].d(T)[sp].d(T)[sp].[moe](A)p.[moe]([m5C])p.[moe](T)[sp].[moe]([m5C])}$$$$ (last 3' nucleoside missing) | 0
RNA1{[moe](G)[sp].[moe](T)p.[moe](T)p.[moe](G)p.[moe](T)[sp].d(T)[sp].d(G)[sp].d(A)[sp].d(T)[sp].d(T)[sp].d(T)[sp].d(T)[sp].d(T)[sp].d([m5C])[sp].d([m5C])[sp].[moe](A)p.[moe](G)p.[moe](A)[sp].[moe](A)}$$$$ (last 3' nucleoside missing) | 4.75
RNA1{[moe](G)[sp].[moe](T)p.[moe](T)p.[moe](G)p.[moe](T)[sp].d(T)[sp].d(G)[sp].d(T)[sp].d(T)[sp].d(T)[sp].d([m5C])[sp].d(T)[sp].d(T)[sp].d(T)[sp].d(T)[sp].[moe]([m5C])p.[moe](T)p.[moe](G)[sp].[moe](G)}$$$$ (last 3' nucleoside missing) | 6
RNA1{[moe](G)[sp].[moe](T)p.[moe](T)p.[moe](T)p.[moe]([m5C])[sp].d([m5C])[sp].d([m5C])[sp].d(A)[sp].d([m5C])[sp].d(A)[sp].d(T)[sp].d(A)[sp].d(T)[sp].d(T)[sp].d(A)[sp].[moe](A)p.[moe](G)p.[moe](T)[sp].[moe](A)}$$$$ (last 3' nucleoside missing) | 1
RNA1{[moe](G)[sp].[moe](T)p.[moe](T)p.[moe]([m5C])p.[moe](A)[sp].d(G)[sp].d(A)[sp].d(G)[sp].d(A)[sp].d(A)[sp].d(T)[sp].d([m5C])[sp].d(T)[sp].d(T)[sp].d(T)[sp].[moe]([m5C])p.[moe](A)p.[moe]([m5C])[sp].[moe]([m5C])}$$$$ (last 3' nucleoside missing) | 0
RNA1{[moe](G)[sp].[moe](T)p.[moe](T)p.[moe]([m5C])p.[moe](A)[sp].d(G)[sp].d(T)[sp].d(G)[sp].d(T)[sp].d(T)[sp].d(G)[sp].d(T)[sp].d(G)[sp].d(A)[sp].d([m5C])[sp].[moe](A)p.[moe](A)p.[moe](T)[sp].[moe](A)}$$$$ (last 3' nucleoside missing) | 6.75
RNA1{[moe](G)[sp].[moe](T)p.[moe](T)p.[moe]([m5C])p.[moe](A)[sp].d([m5C])[sp].d(T)[sp].d(G)[sp].d(T)[sp].d(G)[sp].d(A)[sp].d(A)[sp].d(T)[sp].d(A)[sp].d(T)[sp].[moe](G)p.[moe](T)p.[moe]([m5C])[sp].[moe]([m5C])}$$$$ (last 3' nucleoside missing) | 4.25
RNA1{[moe](G)[sp].[moe](T)p.[moe](T)p.[moe]([m5C])p.[moe](T)[sp].d(A)[sp].d(A)[sp].d(T)[sp].d(T)[sp].d(T)[sp].d(T)[sp].d(A)[sp].d(G)[sp].d(A)[sp].d(T)[sp].[moe]([m5C])p.[moe](A)p.[moe](T)[sp].[moe](T)}$$$$ (last 3' nucleoside missing) | 2
RNA1{[moe](G)[sp].[moe](T)p.[moe](T)p.[moe]([m5C])p.[moe](T)[sp].d(T)[sp].d(T)[sp].d(T)[sp].d([m5C])[sp].d(T)[sp].d(T)[sp].d(T)[sp].d(G)[sp].d([m5C])[sp].d(A)[sp].[moe]([m5C])p.[moe](A)p.[moe]([m5C])[sp].[moe](T)}$$$$ (last 3' nucleoside missing) | 6.25
